Measurements as given in ChEMBL document CHEMBL5325479, “Synthesis and biological evaluation of sulfonylpyridine derivatives as potential anti-chlamydia agents” (Bioorg Med Chem, 2023).
≈ marks a conversion by molar mass, not a printed value. Calls of active or inactive are those of the source. The rule behind the calls is not given here.

How the values were obtained:
Chlamydia trachomatis [1] = assay: Anti-chlamydia activity against Chlamydia trachomatis serovar L2 infected in human HEp-2 cells assessed as inhibition of inclusion growth measured treated 8 hrs POI followed measured after 16 hrs by immunofluorescence assay; assay type: functional, organism-based; settings: serovar L2, HEp-2
Chlamydia trachomatis [2] = assay: Anti-chlamydia activity against Chlamydia trachomatis serovar L2 infected in human HEp-2 cells assessed as inhibition of inclusion growth measured at 0.78 to 50 ug/ml treated 8 hrs POI followed measured after 16 hrs by immunofluorescence assay; assay type: functional, organism-based; settings: dose 0.78-50 µg/ml
Staphylococcus aureus = assay: Antibacterial activity against Staphylococcus aureus USA 300 JE2 assessed as bacterial death measured upto 256 ug/ml; assay type: functional, organism-based; settings: dose <= 256.0 µg/ml
[3] = Cytotoxicity against human HEC-1-A cells assessed as cell survival at 128 ug/ml measured after 24 hrs by XTT assay; assay type: toxicity, cell-based; settings: at 128 µg/mL, read-out: Survival
[4] = Stability of the compound in simulated gastric fluid at pH 1.2 measured after 24 hrs by HPLC analysis; assay type: ADME; settings: simulated gi fluid, pH 1.2, 24 h
Escherichia coli = assay: Antibacterial activity against Escherichia coli K12 assessed as bacterial death measured upto 256 ug/ml; assay type: functional, organism-based; settings: dose <= 256.0 µg/ml
HEp-2 = assay: Cytotoxicity against human HEp-2 cells assessed as cell viability at 4 to 128 ug/ml measured after 24 hrs by XTT assay; assay type: toxicity, cell-based; settings: hep-2, 24 h, dose 4-128 µg/ml

Structure (SMILES)	IC50 (Chlamydia trachomatis [1]) [µg/mL]	other results
CC(C)(C(=O)NCCNc1ccccc1)S(=O)(=O)c1ccc(C(F)(F)F)cn1	14.2 (≈ 34.3 µM)	
CC(C)(C(=O)NCCCOc1ccc(Cl)cc1)S(=O)(=O)c1ccc(C(F)(F)F)cn1	26.1 (≈ 56.2 µM)	
Cc1ccc(OCCNC(=O)C(C)(C)S(=O)(=O)c2ccc(Br)cn2)cc1		inhibition (Chlamydia trachomatis [2]): inactive
CN(CCSc1ccc(Cl)cc1)C(=O)C(C)(C)S(=O)(=O)c1ccc(C(F)(F)F)cn1		inhibition (Chlamydia trachomatis [2]): inactive
CC(C)(C(=O)NCCSc1cccc(Cl)c1)S(=O)(=O)c1ccc(C(F)(F)F)cn1	17.9 (≈ 38.3 µM)	
CC(C)(C(=O)NCCCSc1ccc(Cl)cc1)S(=O)(=O)c1ccc(Br)cn1	2.33 (≈ 4.74 µM)	Activity (Staphylococcus aureus): inactive; viability at 24 h, 128 ug/ml [3]: 100%; Stability [4]: Stable; Activity (Escherichia coli): inactive; Activity (HEp-2): Toxic
Cc1ccccc1SCCNC(=O)C(C)(C)S(=O)(=O)c1ccc(C(F)(F)F)cn1	17.8 (≈ 39.8 µM)	
Cc1ccccc1OCCCNC(=O)C(C)(C)S(=O)(=O)c1ccc(Br)cn1	3.47 (≈ 7.62 µM)	
CC(C)(C(=O)NCCOc1ccc([N+](=O)[O-])cc1)S(=O)(=O)c1ccc(C(F)(F)F)cn1		inhibition (Chlamydia trachomatis [2]): inactive
Cc1ccccc1SCCCNC(=O)C(C)(C)S(=O)(=O)c1ccc(C(F)(F)F)cn1	32.5 (≈ 70.7 µM)	
CC(C)(C(=O)NCCCC1=NC2C=CC=CC2=N1)S(=O)(=O)c1ccc(C(F)(F)F)cn1 (stereo unspecified)		inhibition (Chlamydia trachomatis [2]): inactive
Cc1ccccc1OCCNC(=O)C(C)(C)S(=O)(=O)c1ccc(Br)cn1	18.3 (≈ 41.5 µM)	
CC(C)(C(=O)NCCCSc1cccc(Cl)c1)S(=O)(=O)c1ccc(C(F)(F)F)cn1	14.8 (≈ 30.7 µM)	
CC(C)(C(=O)NCCCSc1ccccc1)S(=O)(=O)c1ccc(C(F)(F)F)cn1	31.4 (≈ 70.3 µM)	
CC(C)(C(=O)NCCCSc1ccc(Cl)cc1)S(=O)(=O)c1ccc(C(F)(F)F)cn1	3.88 (≈ 8.07 µM)	
Cc1ccccc1OCCCNC(=O)C(C)(C)S(=O)(=O)c1ccc(C(F)(F)F)cn1	20.4 (≈ 46 µM)	
Cc1ccc(SCCCNC(=O)C(C)(C)S(=O)(=O)c2ccc(Br)cn2)cc1	16.1 (≈ 34.2 µM)	
Cc1ccc(OCCNC(=O)C(C)(C)S(=O)(=O)c2ccc(C(F)(F)F)cn2)cc1	29.8 (≈ 69.3 µM)	
COc1ccc(OCCNC(=O)C(C)(C)S(=O)(=O)c2ccc(C(F)(F)F)cn2)cc1	42.2 (≈ 94.4 µM)	
CC(C)(C(=O)NCCNc1ccccc1)S(=O)(=O)c1ccc(Br)cn1	11.7 (≈ 27.3 µM)	
CC(=O)N(CCNC(=O)C(C)(C)S(=O)(=O)c1ccc(C(F)(F)F)cn1)c1ccccc1		inhibition (Chlamydia trachomatis [2]): inactive
Cc1ccc(SCCNC(=O)C(C)(C)S(=O)(=O)c2ccc(C(F)(F)F)cn2)cc1	23.5 (≈ 52.6 µM)	
COc1ccccc1OCCNC(=O)C(C)(C)S(=O)(=O)c1ccc(C(F)(F)F)cn1	39.8 (≈ 89.2 µM)	
COc1ccccc1OCCCNC(=O)C(C)(C)S(=O)(=O)c1ccc(C(F)(F)F)cn1		inhibition (Chlamydia trachomatis [2]): inactive
CC(C)(C(=O)NCCc1ccncc1)S(=O)(=O)c1ccc(C(F)(F)F)cn1		inhibition (Chlamydia trachomatis [2]): inactive
Cc1ccccc1OCCNC(=O)C(C)(C)S(=O)(=O)c1ccc(C(F)(F)F)cn1	28.9 (≈ 67.2 µM)	
